# Measurements: US10336762B2 (priority 2017, dated 2019)
# Read-outs that look alike come from different tables or passages of the source.
# Experiments:
# IRAK4 enzyme = IRAK4 enzyme (Homo sapiens (Human), UniProt Q9NWZ3); assay: biochemical; type: biochemical; settings: IRAK4 enzyme, 500 μM ATP
# TNFα = assay: cells; type: cell-based, human; settings: LPS-stimulated human monocytes, read-out: EC50 TNF
# Procedure: IRAK4 Monocyte TNFα Cell Based Assay Procedure:
# The cell suspension was then plated at a density of 5,000 cells/well onto black 384 well Greiner clear bottom plates. Plates were pre-spotted with test compounds and serially diluted in DMSO where 200 nL/well were delivered using the Echo 550 acoustic liquid dispenser (Labcyte®) for a final DMSO concentration of 0.5%. Plated cells were treated with compound for 1 hour at 37° C. Cells were then stimulated with 50 pg/ml of LPS (Sigma) excluding outside columns of plate used for unstimulated cell control wells. Cells were incubated for an additional 4 hours at 37° C. Cells were then spun out of the media and 5 μl of sample were taken and analyzed for total TNFα content using the TR-FRET Human TNFα detection system (CisBio). This system utilizes two labeled antibodies (cryptate and XL665) that bind to two different epitopes of the TNFα molecule and produce FRET signal proportional to the concentration of TNFα in the sample. Detection antibodies are mixed 50:50 and 5 μL were dispensed into each well. Plates were covered with clear seals and incubated at room temp overnight. […] Percent of control was calculated as follows: % Control=100×(RatioSample−Ratio0% stimulation)/(Ratio100% Stimulation−Ratio0% Stimulation) where unstimulated cells (0% stimulation) were the negative control and stimulated cells (100% stimulation) were used as the positive control.
# [1] = Homo sapiens, Monocyte, TNFα content
# [2] = Homo sapiens, Monocyte, TNFα by TR-FRET
# Chain of IRAK4 enzyme (Q9NWZ3 whole entry): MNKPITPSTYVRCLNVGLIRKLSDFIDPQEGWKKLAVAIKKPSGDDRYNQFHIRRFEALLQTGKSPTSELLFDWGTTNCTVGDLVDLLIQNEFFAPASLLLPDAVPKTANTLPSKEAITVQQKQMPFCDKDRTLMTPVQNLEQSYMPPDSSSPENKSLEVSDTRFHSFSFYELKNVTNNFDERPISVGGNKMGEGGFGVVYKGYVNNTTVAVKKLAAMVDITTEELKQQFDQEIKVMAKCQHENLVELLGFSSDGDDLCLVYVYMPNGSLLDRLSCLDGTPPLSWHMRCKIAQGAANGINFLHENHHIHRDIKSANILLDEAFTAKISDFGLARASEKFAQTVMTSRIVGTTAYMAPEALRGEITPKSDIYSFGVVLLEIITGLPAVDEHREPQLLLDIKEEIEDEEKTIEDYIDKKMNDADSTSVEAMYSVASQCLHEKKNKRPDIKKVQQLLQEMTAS
Compound,IC50 (IRAK4 enzyme; TR-FRET),EC50 (TNFα; [1]),IC50 (IRAK4 enzyme; TR-FRET (HTRF)),other results
"CC(C)(O)[C@H](F)CNC(=O)c1cnc(-c2ccc3cc(C#N)cnn23)cc1Nc1ccccc1C#N [Example 143, (R)-4-((2-cyanophenyl)amino)-6-(3-cyanopyrrolo[1,2-b]pyridazin-7-yl)-N-(2-fluoro-3-hydroxy-3-methylbutyl)nicotinamide]",18 nM,720 nM,,
"COCc1cncc(Nc2cc(-c3ccc4cc(C#N)cnn34)ncc2C(=O)NC[C@@H](F)C(C)(C)O)c1 [Example 784, (R)-6-(3-cyanopyrrolo[1,2-b]pyridazin-7-yl)-N-(2-fluoro-3-hydroxy-3-methylbutyl)-4-((5-(methoxymethyl)pyridin-3-yl)amino)nicotinamide]",,40 nM,< 1 nM,
"COC(=O)N1CCC12CC(Nc1cc(-c3ccc4cc(C#N)cnn34)ncc1C(=O)NC[C@@H](F)C(C)(C)O)C2 (stereo partly drawn) [Example 912, (4R,6s)-methyl 6-((2-(3-cyanopyrrolo[1,2-b]pyridazin-7-yl)-5-(((R)-2-fluoro-3-hydroxy-3-methylbutyl)carbamoyl)pyridin-4-yl)amino)-1-azaspiro[3.3]heptane-1-carboxylate]",6 nM,,,EC50 (TNFα; TNFα by TR-FRET): 176 nM
"CN1CCOc2cc(Nc3cc(-c4ccc5cc(C#N)cnn45)ncc3C(=O)NC[C@@H](F)C(C)(C)O)cnc21 [Example 856, (R)-6-(3-cyanopyrrolo[1,2-b]pyridazin-7-yl)-N-(2-fluoro-3-hydroxy-3-methylbutyl)-4-((4-methyl-3,4-dihydro-2H-pyrido[3,2-b][1,4]oxazin-7-yl)amino)nicotinamide]",1 nM,,,EC50 (TNFα; [2]): 24 nM
"C[C@]1(O)C[C@@H](Nc2cc(-c3ccc4cc(C#N)cnn34)ncc2C(=O)NCC#N)C1 [Example 388, N-(cyanomethyl)-6-(3-cyanopyrrolo[1,2-b]pyridazin-7-yl)-4-(((1s,3s)-3-hydroxy-3-methylcyclobutyl)amino) nicotinamide]",1 nM,96 nM,,
"CC(C)(O)[C@H](F)CNC(=O)c1cnc(-c2ccc3cc(C#N)cnn23)cc1Nc1cnc(-c2ccc3cc(C#N)cnn23)nc1 [Example 966, (R)-6-(3-cyanopyrrolo[1,2-b]pyridazin-7-yl)-4-((2-(3-cyanopyrrolo[1,2-b]pyridazin-7-yl)pyrimidin-5-yl)amino)-N-(2-fluoro-3-hydroxy-3-methylbutyl) nicotinamide]",2 nM,,,EC50 (TNFα; [2]): > 10000 nM
"N#Cc1cnn2c(-c3cc(NC45CCC(O)(CC4)CC5)c(C(=O)NCC(=O)N4CCC(O)C4)cn3)ccc2c1 [Example 944, (S)-6-(3-cyano-pyrrolo[1,2-b]pyridazin-7-yl)-4-((4-hydroxy-bicyclo[2.2.2]octan-1-yl)amino)-N-(2-(3-hydroxypyrrolidin-1-yl)-2-oxoethyl) nicotinamide]",< 1 nM,,,EC50 (TNFα; [2]): 209 nM
"COC(=O)NC(C)(CCNC(=O)c1cnc(-c2ccc3cc(C#N)cnn23)cc1NC(C)C)C(F)F (centres unmarked) [Example 553, methyl (4-(6-(3-cyano-pyrrolo[1,2-b]pyridazin-7-yl)-4-(isopropylamino)nicotinamido)-1,1-difluoro-2-methylbutan-2-yl)carbamate]",,183 nM,2 nM,
"CC(C)(O)[C@H](F)CNC(=O)c1cnc(-c2ccc3cc(C#N)cnn23)cc1N[C@@H]1CN2CCC1CC2 [Example 263, 6-(3-cyanopyrrolo[1,2-b]pyridazin-7-yl)-N-((R)-2-fluoro-3-hydroxy-3-methylbutyl)-4-(((S)-quinuclidin-3-yl)amino)nicotinamide]",3 nM,193 nM,,
"CC(C)(O)[C@H](F)CNC(=O)c1cnc(-c2ccc3cc(C#N)cnn23)cc1Nc1ccn(Cc2ccccc2)n1 [Example 370, (R)-4-((1-benzyl-1H-pyrazol-3-yl)amino)-6-(3-cyanopyrrolo[1,2-b]pyridazin-7-yl)-N-(2-fluoro-3-hydroxy-3-methylbutyl)nicotinamide]",1 nM,10 nM,,
"CC(C)(O)[C@H](F)CNC(=O)c1cnc(-c2ccc3cc(C#N)cnn23)cc1NC1CCC(C(=O)N2CCOCC2)CC1 (stereo partly drawn) [Example 173, 6-(3-cyanopyrrolo[1,2-b]pyridazin-7-yl)-N-((R)-2-fluoro-3-hydroxy-3-methylbutyl)-4-(((1r,4R)-4-(morpholine-4-carbonyl)cyclohexyl)amino) nicotinamide]",2 nM,148 nM,,
"CC(C)(O)[C@H](F)CNC(=O)c1cnc(-c2ccc3cc(C#N)cnn23)cc1NC1CC(Cc2cnco2)C1 (single isomer, unassigned) [Example 640]",,,1 nM,EC50 (TNFα; TNFα content): 117 nM
"CC(C)(O)[C@H](F)CNC(=O)c1cnc(-c2ccc3cc(C#N)cnn23)cc1N[C@@H]1C[C@H]2CNC[C@H]2C1 [Example 251, 6-(3-cyanopyrrolo[1,2-b]pyridazin-7-yl)-N-((R)-2-fluoro-3-hydroxy-3-methylbutyl)-4-(((3aR,5s,6aS)-octa-hydrocyclopenta[c]pyrrol-5-yl)amino) nicotinamide]",1 nM,117 nM,,
"CNC(=O)c1ncc(Nc2cc(-c3ccc4cc(C#N)cnn34)ncc2C(=O)NC[C@@H](F)C(C)(C)O)cn1 [Example 674, (R)-5-((2-(3-cyano-pyrrolo[1,2-b]pyridazin-7-yl)-5-((2-fluoro-3-hydroxy-3-methylbutyl)carbamoyl)pyridin-4-yl)amino)-N-methyl-pyrimidine-2-carboxamide]",,67 nM,< 1 nM,
"Cc1nc(-c2ccc(Nc3cc(-c4ccc5cc(C#N)cnn45)ncc3C(=O)NC[C@@H](F)C(C)(C)O)cc2)no1 [Example 968, (R)-6-(3-cyanopyrrolo[1,2-b]pyridazin-7-yl)-N-(2-fluoro-3-hydroxy-3-methylbutyl)-4-((4-(5-methyl-1,2,4-oxadiazol-3-yl)phenyl)amino) nicotinamide]",1 nM,,,EC50 (TNFα; [2]): 81 nM
"CC(C)(C#N)c1ccc(Nc2cc(-c3ccc4cc(C#N)cnn34)ncc2C(=O)NC[C@@H](F)C(C)(C)O)cn1 [Example 683, (R)-4-((6-(2-cyanopropan-2-yl)pyridin-3-yl)amino)-6-(3-cyanopyrrolo[1,2-b]pyridazin-7-yl)-N-(2-fluoro-3-hydroxy-3-methyl-butyl)nicotinamide]",,45 nM,1 nM,
"CN1CCN(C(=O)[C@H](F)CNC(=O)c2cnc(-c3ccc4cc(C#N)cnn34)cc2NC23CCC(O)(CC2)CC3)CC1 [Example 948, (R)-6-(3-cyanopyrrolo[1,2-b]pyridazin-7-yl)-N-(2-fluoro-3-(4-methylpiperazin-1-yl)-3-oxopropyl)-4-((4-hydroxybicyclo[2.2.2]octan-1-yl)amino) nicotinamide]",3 nM,,,EC50 (TNFα; [2]): 282 nM
"CC(C)(O)[C@H](F)CNC(=O)c1cnc(-c2ccc3cc(C#N)cnn23)cc1N[C@H]1CC[C@H](NC(=O)C2(F)CC2)CC1 [Example 422, 6-(3-cyanopyrrolo[1,2-b]pyridazin-7-yl)-N-((R)-2-fluoro-3-hydroxy-3-methylbutyl)-4-(((1r,4R)-4-(1-fluorocyclopropane-1-carboxamido)cyclohexyl)amino)nicotinamide]",,76 nM,2 nM,
"CC(C)(O)[C@H](F)CNC(=O)c1cnc(-c2ccc3cc(C#N)cnn23)cc1Nc1ccc(CO)nc1 [Example 664, (R)-6-(3-cyanopyrrolo[1,2-b]pyridazin-7-yl)-N-(2-fluoro-3-hydroxy-3-methylbutyl)-4-((6-(hydroxymethyl)pyridin-3-yl)amino)nicotinamide]",,14 nM,< 1 nM,
